This assay addresses T1, human αVβ6 (Homo sapiens, UniProt P06756+P18564).
T1 construct: purchased R & D systems 3817-AV
Put plainly: human αVβ6 HTRF binding assay. The protocol: All binding assays used the HTRF (homogeneous time resolved fluorescence) technology from Cisbio International, therefore all assays are described as HTRF binding assays. The assay results for the Examples are listed above together with the characterization data. The HTRF binding assays are established for the following integrins: human αVβ6, human αVβ1, human αVβ3, human αVβ5, and human αVβ8. All assays used the following assay buffer: 20 mM Tris, pH 7.4, 1 mM MgCl2, 1 mM MnCl2, 0.01% Tween 20, and 0.01% BSA. Alternatively, a SPA-based assay was used for evaluation of receptor binding.
[…]

T1 sequence (P06756 31-992 limits assumed): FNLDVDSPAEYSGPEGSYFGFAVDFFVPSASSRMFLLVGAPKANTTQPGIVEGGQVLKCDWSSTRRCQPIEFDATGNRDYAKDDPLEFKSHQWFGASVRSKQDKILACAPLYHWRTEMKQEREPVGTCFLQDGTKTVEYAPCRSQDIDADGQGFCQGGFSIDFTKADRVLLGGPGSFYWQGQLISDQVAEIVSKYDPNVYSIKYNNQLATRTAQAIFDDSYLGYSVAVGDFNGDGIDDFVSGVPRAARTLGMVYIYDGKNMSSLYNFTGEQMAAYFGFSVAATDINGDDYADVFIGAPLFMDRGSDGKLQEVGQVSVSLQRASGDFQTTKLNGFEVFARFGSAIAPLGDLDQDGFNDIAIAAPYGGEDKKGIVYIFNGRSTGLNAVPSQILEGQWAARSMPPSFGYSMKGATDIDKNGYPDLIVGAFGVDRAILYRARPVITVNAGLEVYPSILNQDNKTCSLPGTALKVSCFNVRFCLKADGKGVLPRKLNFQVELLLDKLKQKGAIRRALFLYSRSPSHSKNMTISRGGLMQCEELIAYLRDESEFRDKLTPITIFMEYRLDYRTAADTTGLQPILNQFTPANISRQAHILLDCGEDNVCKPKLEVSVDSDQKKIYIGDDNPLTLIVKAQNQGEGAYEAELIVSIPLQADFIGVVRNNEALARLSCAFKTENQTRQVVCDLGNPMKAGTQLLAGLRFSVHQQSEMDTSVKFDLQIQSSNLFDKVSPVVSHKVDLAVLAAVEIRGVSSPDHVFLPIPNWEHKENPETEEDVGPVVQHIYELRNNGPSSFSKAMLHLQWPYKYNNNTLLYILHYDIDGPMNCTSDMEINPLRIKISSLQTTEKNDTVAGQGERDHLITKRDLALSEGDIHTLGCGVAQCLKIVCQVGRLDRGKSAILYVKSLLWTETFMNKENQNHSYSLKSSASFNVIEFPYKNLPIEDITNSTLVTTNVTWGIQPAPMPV
T1 sequence (P18564 22-707 limits assumed): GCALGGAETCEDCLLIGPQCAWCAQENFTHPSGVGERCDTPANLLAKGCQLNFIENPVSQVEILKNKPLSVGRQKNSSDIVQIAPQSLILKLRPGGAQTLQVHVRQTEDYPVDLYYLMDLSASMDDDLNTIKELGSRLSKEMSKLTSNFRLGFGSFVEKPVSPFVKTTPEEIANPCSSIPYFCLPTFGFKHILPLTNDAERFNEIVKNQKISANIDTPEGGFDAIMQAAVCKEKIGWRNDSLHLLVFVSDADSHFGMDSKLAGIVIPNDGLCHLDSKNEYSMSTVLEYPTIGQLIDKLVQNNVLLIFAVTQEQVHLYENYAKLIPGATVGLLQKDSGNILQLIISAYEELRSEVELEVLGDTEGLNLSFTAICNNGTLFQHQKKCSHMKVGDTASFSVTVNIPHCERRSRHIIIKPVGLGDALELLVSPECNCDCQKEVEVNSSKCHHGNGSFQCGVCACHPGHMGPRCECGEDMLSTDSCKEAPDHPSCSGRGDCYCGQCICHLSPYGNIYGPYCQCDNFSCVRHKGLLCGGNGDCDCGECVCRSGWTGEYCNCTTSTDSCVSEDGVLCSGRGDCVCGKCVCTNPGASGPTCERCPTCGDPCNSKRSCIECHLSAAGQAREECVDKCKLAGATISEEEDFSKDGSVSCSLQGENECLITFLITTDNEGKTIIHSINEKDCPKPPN

As usually defined, the IC50 is the point on the concentration scale where inhibition reaches its midpoint. Low values mean greater potency in that assay, high ones weaker potency in that assay. Turning to `O=C(NC[C@H](NS(=O)(=O)Cc1cc(C(F)(F)F)cc(C(F)(F)F)c1)C(=O)O)c1cnn(CCc2ccc3c(n2)NCCC3)c1` [Example 157], the IC50 turned out to be 16 nM.

Compound `Cc1nc2c(cc1Cn1cc(C(=O)NC(CC(=O)O)c3cc(Cl)cc(Cl)c3)c(CO)n1)CCCN2` (stereo not shown) [Example 105] had an IC50 of 3930 nM.

The compound `O=C(O)CC(NC(=O)c1cnn(CCc2ccc3c(n2)NCCC3)c1CO)c1ccc(Cl)c(Cl)c1` (stereo not shown) [Example 58] registered a 50% inhibitory concentration (IC50) of 40 nM.

`O=C(N[C@@H](CNC(=O)c1cnn(CCc2ccc3c(n2)NCCC3)c1)C(=O)O)OCCF` [Example 170] came in with an IC50 of 5.5 nM.

In turn, `Cc1ccc(Oc2cccc(C(CC(=O)O)NC(=O)c3cnn(CCc4ccc5c(n4)NCCC5)c3CO)c2)cc1` (stereo not shown) [Example 27] came in with a half-maximal inhibitory concentration (IC50) of 5.1 nM.

For `O=C(NC[C@H](NS(=O)(=O)Cc1ccncc1)C(=O)O)c1cnn(CCc2ccc3c(n2)NCCC3)c1` [Example 167], the 50% inhibitory concentration (IC50) is 9.5 nM.

As to `O=C(O)C[C@H](NC(=O)c1cnn(CCCNc2ccccn2)c1)c1cc(Cl)cc(Cl)c1` [Example 7, (S)-3-(3,5-Dichlorophenyl)-3-(1-(3-(pyridin-2-ylamino)propyl)-1H-pyrazole-4-carboxamido)propanoic acid], the concentration for half-maximal inhibition (IC50) came out at 63 nM.

Compound `O=C(O)C[C@H](NC(=O)c1cnn(CCCNC2=NCCN2)c1)c1cc(Cl)cc(Cl)c1` [Example 8, (S)-3-(3,5-Dichlorophenyl)-3-(1-(3-((4,5-dihydro-1H-imidazol-2-yl)amino)propyl)-1H-pyrazole-4-carboxamido)propanoic acid] had a half-maximal inhibitory concentration (IC50) of 41 nM.

`CC(C)(C)c1cc(Br)cc([C@H](CC(=O)O)NC(=O)c2cnn(CCc3ccc4c(n3)NCCC4)c2)c1` [Example 22] displayed an IC50 of 1.9 nM.

`COC(=O)C[C@H](NC(=O)c1cnn(CCc2ccc3c(n2)NCCC3)c1)c1cc(Br)cc(C(C)(C)C)c1` [Example 96] came in with a 50% inhibitory concentration (IC50) of 1100 nM.

The compound `O=C(O)CC(NC(=O)c1cn(CCc2ccc3c(n2)NCCC3)nc1-c1ccccc1)c1cc(Cl)cc(Cl)c1` (stereo not shown) [Example 82] gave an IC50 of 244 nM.

In the case of `O=C(NC[C@@H](NC(=O)[C@@H]1CCCN1S(=O)(=O)c1ccccc1)C(=O)O)c1cnn(CCc2ccc3c(n2)NCCC3)c1` [Example 21], the concentration for half-maximal inhibition (IC50) amounted to 1.4 nM.

Take `O=C(NC[C@H](NS(=O)(=O)Cc1ccc(Cl)cc1Cl)C(=O)O)c1cnn(CCc2ccc3c(n2)NCCC3)c1` [Example 165]: the IC50 was determined as 2.9 nM.

Compound `Cc1nc2c(cc1Cn1cc(C(=O)NC(CC(=O)O)c3cc(Cl)cc(Cl)c3)c(C)n1)CCCN2` (stereo not shown) [Example 100] registered a 50% inhibitory concentration (IC50) of 1460 nM.

In turn, `O=C(NCC(C(=O)O)c1ccccc1)c1cnn(CCc2ccc3c(n2)NCCC3)c1` (stereo not shown) [Example 85] returned an IC50 of 321 nM.

On to `CCOC(=O)N[C@@H](CNC(=O)c1cnn(CCc2ccc3c(n2)NCCC3)c1)C(=O)O` [Example 132], for which the IC50 turned out to be 2.3 nM.

The compound `Cc1c(C(=O)NC(CC(=O)O)c2cc(Cl)cc(Cl)c2)cnn1CCc1ccc2c(n1)NCCC2` (stereo not shown) [Example 49] yielded an IC50 of 23 nM.

Turning to `Cc1cc(C)c(S(=O)(=O)N[C@@H](CNC(=O)c2ccnn2CCc2ccc3c(n2)NCCC3)C(=O)O)c(C)c1` [Example 115], the 50% inhibitory concentration (IC50) turned out to be 34 nM.

Turning to `CN(C(=O)c1cn(CCc2ccc3c(n2)NCCC3)nc1C(F)(F)F)[C@@H](CC(=O)O)c1cc(Cl)cc(Cl)c1` [Example 48], the 50% inhibitory concentration (IC50) came out at 22 nM.

`COCCOC(=O)N[C@@H](CNC(=O)c1cnn(CCc2ccc3c(n2)NCCC3)c1)C(=O)O` [Example 149] registered an IC50 of 4.7 nM.

Consider `Cc1cc(C)c(S(=O)(=O)N[C@H](CNC(=O)c2cnn(CCc3cc4c(nc3C)NCCC4)c2)C(=O)O)c(C)c1` [Example 81], for which the IC50 was 215 nM.

Regarding `CC(C)(C)OCc1c(C(=O)NC(CC(=O)O)c2cccc(Oc3cc(Cl)cc(Cl)c3)c2)cnn1CCc1ccc2c(n1)NCCC2` (stereo not shown) [Example 51], the 50% inhibitory concentration (IC50) turned out to be 28 nM.

Regarding `O=C(O)CC1(NC(=O)c2cnn(CCc3ccc4c(n3)NCCC4)c2)Cc2ccccc2C1` [Example 109], the IC50 turned out to be 6440 nM.

The compound `COc1ccc(S(=O)(=O)N[C@@H](CNC(=O)c2cnn(CCc3ccc4c(n3)NCCC4)c2)C(=O)O)cc1` [Example 19, (S)-2-((4-Methoxyphenyl)sulfonamido)-3-(1-(2-(5,6,7,8-tetrahydro-1,8-naphthyridin-2-yl)ethyl)-1H-pyrazole-4-carboxamido)propanoic acid] registered a concentration for half-maximal inhibition (IC50) of 1.3 nM.

With `COC(=O)N[C@@H](CNC(=O)c1cnn(CCc2ccc3c(n2)NCCC3)c1)C(=O)O` [Example 130], the half-maximal inhibitory concentration (IC50) is 13 nM.

The compound `O=C(O)CC(NC(=O)c1cnn(CCCc2ccc3c(n2)NCCC3)c1CO)c1cc(Cl)cc(Cl)c1` (stereo not shown) [Example 68] gave an IC50 of 98 nM.

Regarding `CN(C(=O)c1cnn(CCc2ccc3c(n2)NCCC3)c1)[C@H](CC(=O)O)c1cc(Cl)cc(Cl)c1` [Example 93], the half-maximal inhibitory concentration (IC50) is 446 nM.

In the case of `O=C(O)C[C@H](NC(=O)c1cnn(CCc2ccc3c(n2)NCCC3)n1)c1cc(Cl)cc(Cl)c1` [Example 13, (S)-3-(3,5-Dichlorophenyl)-3-(2-(2-(5,6,7,8-tetrahydro-1,8-naphthyridin-2-yl)ethyl)-2H-1,2,3-triazole-4-carboxamido)propanoic acid], the IC50 amounted to 7.1 nM.

The compound `CC(C)(C)c1cc(Br)cc([C@H](CC(=O)O)NC(=O)c2cnn(CCCc3ccc4c(n3)NCCC4)c2)c1` [Example 61] had an IC50 of 49 nM.

The compound `CC(C)(C)OCc1nn(CCc2ccc3c(n2)NCCC3)cc1C(=O)NC(CC(=O)O)c1ccc(C(F)(F)F)cc1` (stereo not shown) [Example 95] gave an IC50 of 1050 nM.

Consider `CC(C)(C)OCc1nn(CCc2ccc3c(n2)NCCC3)cc1C(=O)NC(CC(=O)O)c1cc(Cl)cc(Cl)c1` (stereo not shown) [Example 3], for which the IC50 stood at 312 nM.

`Cc1nn(CCc2ccc3c(n2)NCCC3)c(C)c1C(=O)NC(CC(=O)O)c1ccc(Cl)c(Cl)c1` (stereo not shown) [Example 57] gave an IC50 of 40 nM.

`Cc1ccccc1[C@H](CC(=O)O)NC(=O)c1cnn(CCc2ccc3c(n2)NCCC3)c1CO` [Example 92]: the IC50 was 416 nM.

For the compound `CC(C)(C)COC(=O)N[C@@H](CNC(=O)c1cnn(CCc2ccc3c(n2)NCCC3)c1)C(=O)O` [Example 137], the half-inhibitory concentration (IC50) is 0.8 nM.

The compound `O=C(O)CC(NC(=O)c1cnn(CCc2ccc3c(n2)NCCC3)c1CO)c1ccc(Cl)c(C(F)(F)F)c1` (stereo not shown) [Example 35] registered an IC50 of 10 nM.

Compound `CCCCCS(=O)(=O)N[C@@H](CNC(=O)c1cnn(CCc2ccc3c(n2)NCCC3)c1)C(=O)O` [Example 144] returned a half-inhibitory concentration (IC50) of 2.1 nM.

Compound `Cc1cc(C)c(S(=O)(=O)N[C@@H](CNC(=O)c2cnn(CCCNC3=NCCN3)c2)C(=O)O)c(C)c1` [Example 171] gave an IC50 of 14 nM.

The compound `O=C(O)CC(NC(=O)c1cnn(CCc2ccc3c(n2)NCCC3)c1CO)c1ccc2c(c1)OCO2` (stereo not shown) [Example 65] returned an IC50 of 64 nM.

For `Cc1cccc(C(CC(=O)O)NC(=O)c2cnn(CCc3ccc4c(n3)NCCC4)c2CO)c1` (stereo not shown) [Example 55], the IC50 came out at 32 nM.

Regarding `COc1ccc([C@H](CC(=O)O)NC(=O)c2cnn(CCc3ccc4c(n3)NCCC4)c2CO)cc1F` [Example 33], the IC50 came out at 9.4 nM.

`CC(C)CS(=O)(=O)N[C@@H](CNC(=O)c1cnn(CCc2ccc3c(n2)NCCC3)c1)C(=O)O` [Example 145] came in with a 50% inhibitory concentration (IC50) of 3.9 nM.

Consider `CCOC(=O)C[C@H](NC(=O)c1cnn(CCc2ccc3c(n2)NCCC3)c1)c1cc(Cl)cc(Cl)c1` [Example 101], for which the IC50 worked out at 1460 nM.

`O=C(O)CC(NC(=O)c1cnn(CCc2ccc3c(n2)NCCC3)c1CO)c1cccc(Cl)c1` (stereo not shown) [Example 9, 3-(3-Chlorophenyl)-3-(5-(hydroxymethyl)-1-(2-(5,6,7,8-tetrahydro-1,8-naphthyridin-2-yl)ethyl)-1H-pyrazole-4-carboxamido)propanoic acid] showed an IC50 of 22 nM.

`O=C(NC[C@H](NS(=O)(=O)Cc1ccc(OC(F)(F)F)cc1)C(=O)O)c1cnn(CCc2ccc3c(n2)NCCC3)c1` [Example 146] showed an IC50 of 8.6 nM.

In the case of `O=C(N[C@@H](CNCc1cnn(CCc2ccc3c(n2)NCCC3)c1)C(=O)O)OCc1ccccc1` [Example 174, (S)-2-(((Benzyloxy)carbonyl)amino)-3-(((1-(2-(5,6,7,8-tetrahydro-1,8-naphthyridin-2-yl)ethyl)-1H-pyrazol-4-yl)methyl)amino)propanoic acid], the IC50 was found to be 6.2 nM.

In turn, `Cc1nn(CCc2ccc3c(n2)NCCC3)c(C)c1C(=O)NC(CC(=O)O)c1cc(Cl)cc(Cl)c1` (stereo not shown) [Example 83] displayed a half-inhibitory concentration (IC50) of 278 nM.

Compound `CCCOC(=O)N[C@@H](CNC(=O)c1cnn(CCc2ccc3c(n2)NCCC3)c1)C(=O)O` [Example 127] yielded a 50% inhibitory concentration (IC50) of 1.5 nM.

For the compound `Cc1cc(C)c(S(=O)(=O)N[C@@H](CNC(=O)c2cnn(CCCNC3=NCC(F)CN3)c2)C(=O)O)c(C)c1` (stereo partly shown) [Example 173], the half-inhibitory concentration (IC50) is 2.1 nM.

For `O=C(O)CC(NC(=O)c1cnn(CCc2ccc3c(n2)NCCC3)c1CO)c1ccc(Cl)cc1` (stereo not shown) [Example 67], the concentration for half-maximal inhibition (IC50) is 95 nM.

With `O=C(NC[C@H](NS(=O)(=O)CCC(F)(F)F)C(=O)O)c1cnn(CCc2ccc3c(n2)NCCC3)c1` [Example 129], the IC50 is 3 nM.

As to `O=C(O)CC(CCc1ccccc1)NC(=O)c1cnn(CCc2ccc3c(n2)NCCC3)c1` (stereo not shown) [Example 90], the IC50 was 401 nM.

`CC#CCOC(=O)N[C@@H](CNC(=O)c1cnn(CCc2ccc3c(n2)NCCC3)c1)C(=O)O` [Example 162] had a concentration for half-maximal inhibition (IC50) of 2.2 nM.

These data come from US10851098B2, “Azole amides and amines as alpha v integrin inhibitors” (BRISTOL-MYERS SQUIBB COMPANY, priority 2016, dated 2020).
